Experimental data published in patent US10034844B2, “Method for enhancing immunity, inhibiting allergic reaction, and/or inhibiting autoimmune reaction” (TCI CO., LTD., priority 2016, dated 2018).

Assays:
HLA-DPB1 = assay: RNA microarray, HLA-DPB1 expression in PBMCs (MHC-II pathway); format: cell-based, human; conditions: final concentration of 5%, 24 hours, normalized to control group
Description: (§1) PBMCs are immunocytes present in the peripheral blood. In these preparation examples, PBMCs were isolated from the peripheral blood obtained from healthy donors.
(§2) B. Treatments Applied to PBMCs • (b1) 1 mL X-VIVO 10 medium was added into each well of a 24-well plate, and then PBMCs obtained from step A were seeded into the medium with a density of 1×10^6 to 2×10^6/well; and • (b2) PBMCs obtained from step b1 were separated into two groups for the following treatments: • Control group: the PBMCs-containing medium was directly incubated in a 37° C. constant temperature incubator with 5% CO2 (i.e., PBMCs were cultured in a medium that was free of the compound of formula (I)) for 24 hours; • Experimental group: the compound of formula (I) was added to the PBMCs-containing medium until a final concentration of 5%, and then the medium was incubated in a 37° C. constant temperature incubator with 5% CO2 for 24 hours. […]
(§3) To know whether the compound of formula (I) can inhibit the activation of the MHC-II pathway, after determining mRNA expression levels via the above Preparation example C, the expression levels of genes relating to MHC-II pathway (including CD4, CD74, CIITA, HLA-DMB, HLA-DPA1, HLA-DPB1, HLA-DQB1, HLA-DRA, and LGMN) of the control and experimental group were recorded respectively. […]

HLA-DRA = assay: RNA microarray, HLA-DRA expression in PBMCs (MHC-II pathway); format: cell-based, human; conditions: final concentration of 5%, 24 hours, normalized to control group
Description: as §1, §2, §3

[1] = tested on: HLA-DMB (human leukocyte antigen-DMB); assay: RNA microarray, HLA-DMB expression in PBMCs (MHC-II pathway); format: cell-based; conditions: final concentration of 5%, 24 hours, normalized to control group
Description: as §1, §2, §3

CTSL (Cathepsin L) = assay: RNA microarray, CTSL expression in PBMCs (MHC-I pathway); format: cell-based, human; conditions: final concentration of 5%, 24 hours, normalized to control group
Description: as §1, §2
(§4) To know whether the compound of formula (I) can promote the activation of the MHC-I pathway, after determining mRNA expression levels via the above Preparation example C, the expression levels of genes relating to MHC-I pathway (including CTSL, HSPA1B, and HSPA2) of the control and experimental group were recorded respectively. […]

[2] = tested on: KLRG1 (killer cell lectin-like receptor subfamily G, member 1); assay: RNA microarray, KLRG1 expression in PBMCs (aging genes); format: cell-based, human; conditions: final concentration of 5%, 24 hours, normalized to control group
Description: as §1, §2
(§5) To know whether the compound of formula (I) can delay the aging of immunocytes, after determining mRNA expression levels via the above Preparation example C, the expression levels of genes representing the old stage of immunocytes (including CD244, ITGA4, and KLRG1) of the control and experimental group were recorded respectively. […]

HLA-DPA1 = assay: RNA microarray, HLA-DPA1 expression in PBMCs (MHC-II pathway); format: cell-based, human; conditions: final concentration of 5%, 24 hours, normalized to control group
Description: as §1, §2, §3

LGMN (legumain) = assay: RNA microarray, LGMN expression in PBMCs (MHC-II pathway); format: cell-based, human; conditions: final concentration of 5%, 24 hours, normalized to control group
Description: as §1, §2, §3

[3] = tested on: CD244 (Cluster of Differentiation 244); assay: RNA microarray, CD244 expression in PBMCs (aging genes); format: cell-based, human; conditions: final concentration of 5%, 24 hours, normalized to control group
Description: as §1, §2, §5

[4] = tested on: CD4 (Cluster of Differentiation 4); assay: RNA microarray, CD4 expression in PBMCs (MHC-II pathway); format: cell-based, human; conditions: final concentration of 5%, 24 hours, normalized to control group
Description: as §1, §2, §3

[5] = tested on: SOD2 (Superoxide dismutase 2); assay: RNA microarray, SOD2 expression in PBMCs (genes delaying aging of immunocytes); format: cell-based, human; conditions: final concentration of 5%, 24 hours, normalized to control group
Description: as §1, §2
(§6) To know whether the compound of formula (I) can delay the aging of immunocytes, after determining mRNA expression levels via the above Preparation example C, the expression levels of genes helpful for delaying the aging of immunocytes (including FOXO3, SOD2, and TNFRSF14) of the control and experimental group were recorded respectively. […]

[6] = tested on: IL-1B (interleukin 1 beta); assay: RNA microarray, IL-1B expression in PBMCs (macrophage activation); format: cell-based, human; conditions: final concentration of 5%, 24 hours, normalized to control group
Description: as §1, §2
(§7) To know whether the compound of formula (I) can promote the activation of macrophages, after determining mRNA expression levels via the above Preparation example C, the expression levels of genes relating to macrophage activation (including IL-1B and TNF-α) of the control and experimental group were recorded respectively. […]

FOXO3 (forkhead box O3) = assay: RNA microarray, FOXO3 expression in PBMCs (genes delaying aging of immunocytes); format: cell-based, human; conditions: final concentration of 5%, 24 hours, compared to control group
Description: as §1, §2, §6

[7] = tested on: TNFRSF14 (TNF superfamily, member 14); assay: RNA microarray, TNFRSF14 expression in PBMCs (genes delaying aging of immunocytes); format: cell-based, human; conditions: final concentration of 5%, 24 hours, compared to control group
Description: as §1, §2, §6

[8] = tested on: TNF-α (tumor necrosis factor alpha); assay: RNA microarray, TNF-α expression in PBMCs (macrophage activation); format: cell-based, human; conditions: final concentration of 5%, 24 hours, compared to control group
Description: as §1, §2, §7

[9] = tested on: HSPA2 (Heat Shock Protein Family A Member 2); assay: RNA microarray, HSPA2 expression in PBMCs (MHC-I pathway); format: cell-based, human; conditions: final concentration of 5%, 24 hours, normalized to control group
Description: as §1, §2, §4

[10] = tested on: CD74 (Cluster of Differentiation 74); assay: RNA microarray, CD74 expression in PBMCs (MHC-II pathway); format: cell-based, human; conditions: final concentration of 5%, 24 hours, normalized to control group
Description: as §1, §2, §3

[11] = tested on: HSPA1B (heat shock protein family A member 1B); assay: RNA microarray, HSPA1B expression in PBMCs (MHC-I pathway); format: cell-based, human; conditions: final concentration of 5%, 24 hours, compared to control group
Description: as §1, §2, §4

HLA-DQB1 = assay: RNA microarray, HLA-DQB1 expression in PBMCs (MHC-II pathway); format: cell-based, human; conditions: final concentration of 5%, 24 hours, normalized to control group
Description: as §1, §2, §3

[12] = tested on: ITGA4 (integrin subunit alpha 4); assay: RNA microarray, ITGA4 expression in PBMCs (aging genes); format: cell-based, human; conditions: final concentration of 5%, 24 hours, normalized to control group
Description: as §1, §2, §5

[13] = tested on: CIITA (Class II Major Histocompatibility Complex Transactivator); assay: RNA microarray, CIITA expression in PBMCs (MHC-II pathway); format: cell-based, human; conditions: final concentration of 5%, 24 hours, normalized to control group
Description: as §1, §2, §3

SMILES: C=C1CC[C@@H](C)C2C[C@@H](O)[C@@H](C(C)C(=O)O)CC12 (some centres unmarked) [compound of formula (I)]
- expression level of HLA-DPB1 (HLA-DPB1): 0.23 times the level of the control group
- expression level of HLA-DRA (HLA-DRA): 0.36 times the level of the control group
- expression level of HLA-DMB [1]: 0.31 times the level of the control group
- expression level of CTSL (CTSL (Cathepsin L)): 3.13 times the level of the control group
- expression level of KLRG1 [2]: 0.25 times the level of the control group
- expression level of HLA-DPA1 (HLA-DPA1): 0.23 times the level of the control group
- expression level of LGMN (LGMN (legumain)): 0.32 times the level of the control group
- expression level of CD244 [3]: 0.14 times the level of the control group
- expression level of CD4 [4]: 0.47 times the level of the control group
- expression level of SOD2 [5]: 6.06 times the level of the control group
- expression level of IL-1B [6]: 16.32 times the level of the control group
- expression level of FOXO3 (FOXO3 (forkhead box O3)): significantly increased
- expression level of TNFRSF14 [7]: significantly increased
- expression level of TNF-α [8]: significantly increased
- expression level of HSPA2 [9]: 4.61 times the level of the control group
- expression level of CD74 [10]: 0.18 times the level of the control group
- expression level of HSPA1B [11]: significantly increased
- expression level of HLA-DQB1 (HLA-DQB1): 0.14 times the level of the control group
- expression level of ITGA4 [12]: 0.24 times the level of the control group
- expression level of CIITA [13]: 0.40 times the level of the control group
